# In PMC6222718, “Ethylenediamine Derived Carboxamides of Betulinic and Ursolic Acid as Potential Cytotoxic Agents” (Molecules : A Journal of Synthetic Chemistry and Natural …, 2018):
# Where a name gives a salt, the structure may show the parent alone.
# Key:
# [1] = tested on: MCF-7 (breast adenocarcinoma); experiment: SRB cytotoxicity assay, MCF-7; assay type: cell-based, human; settings: for EC50: Homo sapiens, MCF7, SRB assay, 96 h of treatment, MCF-7; for Selectivity index (SI) MCF-7: SI = EC50 (NIH 3T3)/EC50 (MCF-7)
# Experimental: (§1) The cytotoxicity of ursolic and betulinic carboxamides 3–30 was determined in sulforhodamine B (SRB) assays.
# (§2) The cell lines used were human cancer cell lines: 518A2 (melanoma), A2780 (ovarian carcinoma), HT29 (colon adenocarcinoma), MCF-7 (breast adenocarcinoma), 8505C (thyroid carcinoma) and non-malignant mouse fibroblasts NIH 3T3. Cultures were maintained as monolayers in RPMI 1640 medium with L-glutamine (Capricorn Scientific GmbH, Ebsdorfergrund, Germany) supplemented with 10% heat inactivated fetal bovineserum (Sigma-Aldrich Chemie GmbH, Steinheim, Germany) and penicillin/streptomycin (Capricorn Scientific GmbH, Ebsdorfergrund, Germany) at 37 °C in a humidified atmosphere with 5% CO2.
# (§3) The cytotoxicity of the compounds was evaluated using the sulforhodamine-B (Kiton-Red S, ABCR) micro culture colorimetric assay. Cells were seeded into 96-well plates on day 0 at appropriate cell densities to prevent confluence of the cells during the period of experiment. After 24 h, the cells were treated with 6 different concentrations (1, 3, 7, 12, 20 and 30 µM) minimum. The final concentration of DMSO/DMF never exceeded 0.5%, which was non-toxic to the cells. After a 96 h treatment, the supernatant medium from the 96-well plates was discarded, the cells were fixed with 10% trichloroacetic acid (TCA) and allowed to rest at 4 °C. After 24 h fixation, the cells were washed in a strip washer and dyed with SRB solution (100 µL, 0.4% in 1% acetic acid) for about 20 min. After dying, the plates were washed four times with 1% acetic acid to remove the excess of the dye and allowed to air-dry overnight. Tris base solution (200 µL, 10 mM) was added to each well and absorbance was measured at λ = 570 nm using a 96-well plate reader (Tecan Spectra, Crailsheim, Germany). The EC50 values were averaged from three independent experiments performed each in triplicate calculated from semi logarithmic dose response curves applying a non-linear 4P Hills-slope equation (GraphPad Prism5; variables top and bottom were set to 100 and 0, respectively).
# [2] = tested on: 8505C (thyroid carcinoma); experiment: SRB cytotoxicity assay, 8505C; assay type: cell-based, human; settings: for EC50: Homo sapiens, SRB assay, 96 h of treatment, 8505C; for Selectivity index (SI) 8505C: SI = EC50 (NIH 3T3)/EC50 (8505C)
# Experimental: as §1, §2, §3
# 518A2 (melanoma) = experiment: SRB cytotoxicity assay, 518A2; assay type: cell-based, human; settings: for EC50: Homo sapiens, SRB assay, 96 h of treatment, 518A2; for Selectivity index (SI) 518A2: SI = EC50 (NIH 3T3)/EC50 (518A2)
# Experimental: as §1, §2, §3
# [3] = tested on: A2780 (ovarian carcinoma); experiment: SRB cytotoxicity assay, A2780; assay type: cell-based, human; settings: for EC50: Homo sapiens, SRB assay, 96 h of treatment, A2780; for Selectivity index (SI) A2780: SI = EC50 (NIH 3T3)/EC50 (A2780)
# Experimental: as §1, §2, §3
# [4] = tested on: non-malignant mouse fibroblasts NIH 3T3; experiment: SRB cytotoxicity assay, NIH 3T3; assay type: cell-based; settings: NIH3T3, 96 h of treatment
# Experimental: as §1, §2, §3
# [5] = tested on: HT29 (colon adenocarcinoma); experiment: SRB cytotoxicity assay, HT29; assay type: cell-based, human; settings: for EC50: Homo sapiens, HT-29, SRB assay, 96 h of treatment, HT29; for Selectivity index (SI) HT29: SI = EC50 (NIH 3T3)/EC50 (HT29)
# Experimental: as §1, §2, §3
SMILES,melting point,EC50 [1],Selectivity index (SI) MCF-7 [1],EC50 [2],Selectivity index (SI) 8505C [2],EC50 (518A2 (melanoma)),Selectivity index (SI) 518A2 (518A2 (melanoma)),EC50 [3],Selectivity index (SI) A2780 [3],EC50 [4],EC50 [5],Selectivity index (SI) HT29 [5]
"CC(=O)O[C@H]1CC[C@@]2(C)C(CC[C@]3(C)C2CC=C2C4[C@@H](C)[C@H](C)CC[C@]4(C(=O)NCCCCN)CC[C@]23C)C1(C)C (stereo partly drawn) [Compound 8, (3β)-N-(4-Aminobutyl)-3-acetyloxy-urs-12-en-28-amide]",117 to 120 °C,1.7 ± 0.1 µM,0.76,3.2 ± 0.01 µM,0.41,2.7 ± 0.1 µM,0.48,2.6 ± 0.1 µM,0.50,1.3 ± 0.2 µM,1.7 ± 0.1 µM,0.76
"C=C(C)C1CC[C@]2(C(=O)NCCN)CC[C@]3(C)C(CCC4[C@@]5(C)CC[C@H](OC(C)=O)C(C)(C)C5CC[C@]43C)C12 (stereo partly drawn) [Compound 17, (3β)-N-(2-Aminoethyl)-3-acetyloxy-lup-20(29)-en-28-amide]",–,1.3 ± 0.06 µM,1.08,2.5 ± 0.03 µM,0.56,1.6 ± 0.1 µM,0.88,1.4 ± 0.2 µM,1.00,1.4 ± 0.1 µM,1 ± 0.3 µM,1.40
"C=C(C)C1CC[C@]2(C(=O)NCCN)CC[C@]3(C)C(CCC4[C@@]5(C)CC[C@H](O)C(C)(C)C5CC[C@]43C)C12 (stereo partly drawn) [Compound 24, (3β)-N-(2-Aminoethyl)-3-hydroxy-lup-20(29)-en-28-amide]",–,0.4 ± 0.02 µM,1.00,0.4 ± 0.07 µM,1.00,0.4 ± 0.01 µM,1.00,0.4 ± 0.03 µM,1.00,0.4 ± 0.02 µM,0.4 ± 0.02 µM,1.00
"C=C(C)C1CC[C@]2(C(=O)NCCN3CCCCC3)CC[C@]3(C)C(CCC4[C@@]5(C)CC[C@H](O)C(C)(C)C5CC[C@]43C)C12 (stereo partly drawn) [Compound 27, (3β)-N-(2-Piperidin-1-ylethyl)-3-hydroxy-lup-20(29)-en-28-amide]",–,0.4 ± 0.01 µM,1.00,0.8 ± 0.09 µM,0.50,0.5 ± 0.1 µM,0.80,0.4 ± 0.1 µM,1.00,0.4 ± 0.01 µM,0.4 ± 0.03 µM,1.00
"COc1cccc2c1C(=O)c1c(O)c3c(c(O)c1C2=O)C[C@@](O)(C(=O)CO)C[C@@H]3O[C@H]1C[C@H](N)[C@H](O)[C@H](C)O1 [DRC, doxorubicin hydrochloride, reference compound]",–,1.1 ± 0.3 µM,0.05,1.1 ± 0.4 µM,0.05,0.2 ± 0.05 µM,0.30,0.01 ± 0.01 µM,6.00,0.06 ± 0.03 µM,0.9 ± 0.2 µM,0.07
"C[C@H]1[C@H](C)CC[C@]2(C(=O)O)CC[C@]3(C)C(=CC[C@@H]4[C@@]5(C)CC[C@H](O)C(C)(C)[C@@H]5CC[C@]43C)[C@H]12 [UA, ursolic acid]",–,12.7 ± 0.1 µM,1.47,13.5 ± 1.5 µM,1.39,14.7 ± 0.1 µM,1.27,11.7 ± 0.6 µM,1.59,18.7 ± 1.6 µM,10.6 ± 0.7 µM,1.76
